Experimental data from US20260250318A1, “COMPOSITIONS AND METHODS FOR CROSSING THE BLOOD BRAIN BARRIER” (VOYAGER THERAPEUTICS, INC., priority 2022, published 2026).

Test system: brains, heart, liver, muscle, and DRG of the NHPs
Assay: Maturation of TTM-001 and TTM-002 capsids, NGS enrichment in NHP tissues
Format: in vivo
Description: This Example describes maturation of the AAV9 capsid variants, TTM-001 (SEQ ID NO: 981 (amino acid) and 983 (DNA), comprising SEQ ID NO: 941 (encoded by SEQ ID NO: 942)) and TTM-002 (SEQ ID NO: 982 (amino acid) and 984 (DNA), comprising SEQ ID NO: […] (encoded by SEQ ID NO: 944)) in NHPs to further enhance their transduction and biodistribution in the central nervous system as well as other tissues, and evolve the AAV capsid variants to provide further cross-species compatibility. Two approaches were used to mature the TTM-001 and TTM-002 capsid sequences in order to randomize and mutate within and around the peptide insert comprised within loop IV of the capsid variant. […] In the first maturation approach, sets of three contiguous amino acids were randomized across the mutagenesis region in the TTM-001 and TTM-002 sequences, which spanned from position 450 to position 466, numbered according to SEQ ID NO: 981 and 982. In the second maturation approach, mutagenic primers were used to introduce point mutations at a low frequency, scattered across the mutagenesis region in the TTM-001 and TTM-002 sequences ranging from position 449 to position 466, numbered according to SEQ ID NO: 981 and 982. AAV capsid variants arising from each maturation approach for TTM-001 and TTM-002 were pooled together, for subsequent testing and characterization in NHPs.
The library of pooled matured AAV capsid variants generated using the first maturation approach and the second maturation approach for the TTM-001 and TTM-002 AAV capsid variants were injected into two NHPs. […] Following RNA recovery and RT-PCR amplification, a systematic NGS enrichment analysis was performed to calculate the fold enrichment ratio relative to an AAV9 control, and the peptides comprised within the variants were identified.
Following the RNA recovery and NGS analysis from the second maturation approach, approximately 680,000 capsid variants were identified. The 680,000 matured capsid variants were then filtered based on samples with a raw virus count greater than 10 and a coefficient of variance (CV) of less than 1, which was calculated for each peptide across the brain samples taken from the two NHPs. […] Using this filtering criteria, this led to approximately 64,000 matured capsid variants.

[1] = NHP DRG, NGS, relative to AAV9 control
[2] = NHP brain, NGS, relative to AAV9 control
[3] = NHP heart, NGS, relative to AAV9 control
[4] = NHP liver DNA, NGS, relative to AAV9 control
[5] = NHP liver RNA, NGS, TTM-001 and TTM-002 matured AAV capsid variants, relative to AAV9 control
[6] = NHP muscle, NGS, relative to AAV9 control

Row | Sequence | Fold Enrichment relative to AAV9, DRG (NHP) [1] | Fold Enrichment relative to AAV9, Brain (NHP) [2] | Fold Enrichment relative to AAV9, Heart (NHP) [3] | Fold Enrichment relative to AAV9, Liver DNA (NHP) [4] | Fold Enrichment relative to AAV9, Liver RNA (NHP) [5] | Fold Enrichment relative to AAV9, Muscle (NHP) [6] | Fold Enrichment relative to AAV9, DRG (NHP) (NGS fold-enrichment, DRG, NHP, relative to AAV9) | Fold Enrichment relative to AAV9, Brain (NHP) (NGS fold-enrichment, brain, NHP, relative to AAV9) | Fold Enrichment relative to AAV9, Heart (NHP) (NGS fold-enrichment, heart, NHP, relative to AAV9) | Fold Enrichment relative to AAV9, Liver DNA (NHP) (NGS fold-enrichment, liver DNA, NHP, relative to AAV9) | Fold Enrichment relative to AAV9, Liver RNA (NHP) (NGS fold-enrichment, liver RNA, NHP, relative to AAV9) | Fold Enrichment relative to AAV9, Muscle (NHP) (NGS fold-enrichment, muscle, NHP, relative to AAV9)
1 | KTINGSGSPHSKRKRQQT | 0.000 fold | 0.000 fold | 0.000 fold | 3.027 fold | 11.215 fold | 0.000 fold |  |  |  |  |  | 
2 | KTINGSGSPHRCCQNQQT | 0.000 fold | 0.000 fold | 0.000 fold | 2.213 fold | 19.084 fold | 0.000 fold |  |  |  |  |  | 
3 | KTINGSGSPHSWAPNQQT | 0.000 fold | 0.000 fold | 0.000 fold | 1.789 fold | 47.897 fold | 0.000 fold |  |  |  |  |  | 
4 | KTINGSGSPHSKKTSQQT | 0.000 fold | 0.000 fold | 0.000 fold | 1.344 fold | 15.244 fold | 0.000 fold |  |  |  |  |  | 
5 | KTINGSRSPHAWAQNQQT (peptide inserted in AAV capsid) | 0.000 fold | 0.000 fold | 0.000 fold | 6.838 fold | 31.146 fold | 0.000 fold |  |  |  |  |  | 
6 | KTINGSGSPHRIKQNQQT | 0.000 fold | 0.000 fold | 0.000 fold | 3.064 fold | 21.720 fold | 0.000 fold |  |  |  |  |  | 
7 | KTINGSGSPHRWLQNQQT | 0.000 fold | 0.000 fold | 0.000 fold | 6.882 fold | 28.147 fold | 0.000 fold |  |  |  |  |  | 
8 | KTINGSGSPHSKALRHQT |  |  |  |  |  |  | 0.000 fold | 0.000 fold | 0.000 fold | 4.532 fold | 10.774 fold | 0.000 fold
9 | KPRFGSGSPHSKAQNQQT | 0.000 fold | 0.000 fold | 0.000 fold | 0.657 fold | 27.203 fold | 0.000 fold |  |  |  |  |  | 
10 | KTINGSGSPHSLAWNQQT | 0.000 fold | 0.000 fold | 0.000 fold | 4.746 fold | 29.015 fold | 0.000 fold |  |  |  |  |  | 
11 | KTINGSGSPHSRCPNQQT | 0.000 fold | 0.000 fold | 0.000 fold | 4.890 fold | 39.529 fold | 0.000 fold |  |  |  |  |  | 
12 | KTINGSSSPHRCAQNQQT (peptide inserted in AAV capsid) | 0.000 fold | 0.000 fold | 0.000 fold | 1.829 fold | 28.887 fold | 0.000 fold |  |  |  |  |  | 
13 | KTINGSGSPHRWTQNQQT | 0.000 fold | 0.000 fold | 0.000 fold | 0.844 fold | 12.490 fold | 0.000 fold |  |  |  |  |  | 
14 | KTINGSGSPHSKKVFQQT | 0.000 fold | 0.000 fold | 0.000 fold | 4.480 fold | 43.747 fold | 0.000 fold |  |  |  |  |  | 
15 | KTINSCFSPHSKAQNQQT | 0.000 fold | 0.000 fold | 0.000 fold | 1.016 fold | 11.847 fold | 0.000 fold |  |  |  |  |  | 
16 | KSRRGSGSPHSKAQNQQT | 0.000 fold | 0.000 fold | 0.000 fold | 1.446 fold | 16.131 fold | 0.000 fold |  |  |  |  |  | 
17 | KTINGSGSPHSKAQYVRT | 0.000 fold | 0.000 fold | 0.000 fold | 3.275 fold | 12.239 fold | 0.000 fold |  |  |  |  |  | 
18 | KTINGSGSPHSKIRRQQT | 0.000 fold | 0.000 fold | 0.000 fold | 1.388 fold | 53.528 fold | 0.000 fold |  |  |  |  |  | 
19 | KTRKRSGSPHSKAQNQQT | 0.000 fold | 0.000 fold | 0.000 fold | 2.075 fold | 16.603 fold | 0.000 fold |  |  |  |  |  | 
20 | KTINYTRSPHSKAQNQQT | 0.000 fold | 0.000 fold | 0.000 fold | 0.431 fold | 11.514 fold | 0.000 fold |  |  |  |  |  | 
